Data reported in patent US10456434B2, “Extracts obtained from cell line cultures from plants belonging to the Oleaceae family (e.g. Syringa vulgaris), their preparation and use” (CRODA ITALIANA S. P. A., priority 2005, dated 2019).

Assays:
[1] = test system: platelets; test: Platelet disaggregation 10 minutes after ADP; format: cell-based, rabbit; details: 1.0 mg/ml
Description: Platelet enriched rabbit plasma has been used to assess the platelet anti-aggregating and disaggregating properties of Syringa vulgaris Extract 1, verbascoside and isoverbascoside. Platelet rich plasma has been obtained from rabbit venous blood by mixing it with a 3.8% sodium citrate solution (9:1 v/v). The solution has then been centrifuged at 460×g for 20 minutes. The supernatant has been collected and immediately used for the aggregation assays. Platelet aggregation has been recorded using a Chronolog “Ionised calcium platelet aggregometer” (Chrono-log Co., USA). All measurements have been performed at 37° C. with continuous stirring. […] Then 10 μl of a solution of ADP (final concentration—10 μm) has been added and the luminous transmittance continuously recorded. The results are expressed as the DÒ/DÒÊ ratio, where DÒÊ and DÒ are the luminous transmittance values, in the absence and presence of extract respectively. Platelet disaggregation (the disappearance of pre formed aggregates) has been determined using the same luminous transmittance curve 10 minutes following the addition of ADP. The results are expressed as the DR/DRk ratio, where DRk and DR, are the luminous transmittance in the absence and presence of extract. […]

[2] = test system: PC12 cells; test: Protection against oxidative stress induced cell death in PC12 cells; format: cell-based, rat; details: 72 hours
Source text: This assay has the aim of determining the protective capacity, of Syringa vulgaris extracts, in relation to oxidative stress induced cell death in rat pheochromocytoma cell cultures (PC12 cell line).
The assay has been performed as described in the literature (Echevery C. et al. Cytoprotection by neutral fraction of tannat red wine against oxidative stress-induced cell death. J. Agric. Food Chem., 2004, 52(24): 7395-9. Ochiai T. et al. Crocin prevents the death of rat pheo-chromycitoma (PC12) cells by its antioxidant effects stronger than those of alpha-tocopherol. Neurosci. Lett., 2004, 362(1):61-4).
The results obtained are summarised in table 11, and are expressed as the ratio between the numbers of viable cells after 72 hours in the samples with respect to control.

[3] = Superoxide anion chemiluminescent assay (hypoxanthine/xanthine oxidase); format: biochemical; details: mean of 6 independent assays
Source text: (§1) The superoxide anion has been measured by a chemiluminescent assay based on the hypoxanthine (HPX)/xanthine oxidase (XOD) reaction using the Lumimax Superoxide Anion Detection Kit (Stratagene, La Jolla, Calif., USA) and following the manufacturer's instructions. Hydroxyl radical scavenger activity has been measured by means of the Fenton reaction for the production of hydroxyl radicals and chemiluminescent dosage (using a Victor^3 chemiluminometer, Wallac, Finland) with luminol. Peroxynitrite ions have been determined by means of dosage with a spontaneous generator of peroxynitrites (3-morpholinosidnonimine hydrochloride; SIN-1) and a stable reagent for the nitroxyl ions (2-(4-carboxyphenyl)-4,4,5,5-tetramethylimidazoline-1-oxyl-3-oxide potassium salt PTIO spin trap) then dosed by means of electron spin resonance (ESR) using a. Nippon Denshi JES-FR30.
(§2) Extract 1 and Extract 2 listed in Table are derived from Syringa vulgaris cell cultures. […] The results are expressed as the concentration inhibiting 50% of activity (IC50). The values reported are the means of 6 independent assays.

[4] = Peroxynitrite assay (SIN-1, PTIO spin trap, ESR); format: biochemical; details: mean of 6 independent assays
Source text: as §1, §2

[5] = Hydroxyl radical scavenger activity (Fenton reaction, luminol chemiluminescence); format: biochemical; details: mean of 6 independent assays
Source text: as §1, with “Syringa vulgaris Extracts 1 and 2, prepared as described in examples 1 and 2, have been used to assess in vitro antioxidant action with specific oxygen radical generating systems such as the superoxide anion (O2^−), the hydroxyl radical (HO), the peroxynitrite radical (ONOO^−) and the inhibition of lipid peroxidation. The” for “The”, “JES-FR30. […].” for “JES-FR30.”
(§3) Extract 1 and Extract 2 listed in Table are derived from Syringa vulgaris cell cultures. In said extracts, verbascoside is present at 0.82% and 35% by weight respectively. […]

[6] = test system: A549 cells; test: Oxidative stress (ROS, DCF fluorescence) in A549 cell cultures; format: cell-based, human; details: 20 mM, A549, galactose oxidative stress
Description: 10×10^5 A549 cells (ATCC-CCL195) have been seeded into wells with 3 ml of DMEM/medium (HAM'S F12K) with 10% FCS and incubated at 37° C. in a 5% CO2, water vapour saturated atmosphere. After 24 hours the culture medium is replaced by medium supplemented with 5.55 mM galactose, which is left in contact with the cells for 20 hours. The medium is once again replaced with medium containing galactose in the presence or absence of the test compound. After 5 hours, quantitative measurement of the ROSs is performed by washing the cells with phosphate buffer and then incubating them with 30 μM DCF-DA in buffer solution. At the end of a 15 minute incubation, excess DCF-DA is removed from the cells by washing, prior to measuring the fluorescence emitted.
Antioxidant activity measurements are performed using a (Hitachi F3010) spectrophotometer with excitation at 488 nm and measuring emission at 525 nm, and values are expressed in pmoles, by extrapolation from the calibration curve constructed using known quantities of DCF, in relation to total cellular protein. Values are thus expressed in % ages with respect to the ROS, content of the cells not subjected to oxidative stress, to which are assigned a value of 100.
Syringa vulgaris Extracts 1 and 2 and ascorbic acid have been dissolved in phosphate buffer.

[7] = Fe2+ induced lipid peroxidation (thiobarbituric acid); format: biochemical; details: mean of 6 independent assays
Source text: as §1, with “Syringa vulgaris Extracts 1 and 2, prepared as described in examples 1 and 2, have been used to assess in vitro antioxidant action with specific oxygen radical generating systems such as the superoxide anion (O2^−), the hydroxyl radical (HO), the peroxynitrite radical (ONOO^−) and the inhibition of lipid peroxidation. The” for “The”, “JES-FR30. […].” for “JES-FR30.”
as §3

Superoxide radical (IC50) [3] [mg/L]	Peroxynitrite radical (IC50) [4] [mg/L]	Hydroxyl radial (IC50) [5] [mg/L]	Lipid peroxidation (IC50) [7] [mg/L]	Compound	Disaggregation (% with respect to control) [1] [%]	Ratio of viable treated cells over control ([2]; 100 μg/ml)	Ratio of viable treated cells over control ([2]; 500 μg/ml)	Ratio of viable treated cells over control ([2]; 1000 μg/ml)	ROS level (%) [6] [%]
				CC1OC(OC2C(O)C(COC(=O)C=Cc3ccc(O)c(O)c3)OC(OCCc3ccc(O)c(O)c3)C2O)C(O)C(O)C1O [Isoverbascoside, b-(3,4-dihydroxyphenyl)-ethyl-O-α-L-ramnopyranosyl(1″-3′)-b-D-(6′-O-caffeoil)glucopyranoside]	75 ± 21	4	10	10	
3.1	1.6	2.2	7.4	C[C@@H]1O[C@@H](O[C@@H]2[C@@H](O)[C@H](OCCc3ccc(O)c(O)c3)O[C@H](CO)[C@H]2OC(=O)/C=C/c2ccc(O)c(O)c2)[C@H](O)[C@H](O)[C@H]1O [Verbascoside, b-(3,4-dihydroxyphenyl)-ethyl-O-α-L-ramnopyranosyl (1″-3′)-b-D-(4′-O-caffeoil)-glucopyranoside]	73 ± 21				85 ± 7
